Read-outs that look alike come from different tables or passages of the source.
Experiments:
PBMCs [1] = assay: In vitro cytotoxicity assay with XTT dye, PBMCs; type: cell-based, human; settings: Homo sapiens, PBMC, 72 h incubation then 24 h XTT, read-out: IC50 PBMCs (XTT test)
Experimental: (§1) Figure 2. Representative dose-response curve to determine the IC50 of MPA and A2. […] Next, plates were incubated for 24 h with XTT reagent. The conversion of water-soluble yellow tetrazolium XTT salt into orange formazan was monitored by measuring the optical density at 450 nm on microplate spectrophotometer. For XTT assay at least three experiments were performed and values are presented as mean ± SD.
(§2) The cytotoxic effect of derivatives of MPA was measured using in vitro 2,3-bis(2-methoxy-4-nitro-5-sulfophenyl)-2H-tetrazolium-5-carboxanilide (XTT)-based assay (Roche, Basel, Swiss). PBMCs suspended in complete X–VIVO20 medium and T-Jurkat cells suspended in complete RPMI-1640 medium were added on a 96-well plate at a concentration of 5 × 10^5 cells/50 µL/well. […] As a background control we used medium without cells, as a positive control we used cells untreated with compounds. After 48 h for T-Jurkat cells and 72 h for PBMCs of incubation in a humidified atmosphere with 5% CO2 at 37 °C, 50 µL of XTT reagent (freshly prepared according to the manufacturer’s procedure) was added to all samples. Plates were incubated for 24 h (5% CO2 at 37 °C). The conversion of water-soluble yellow tetrazolium XTT salt into orange formazan was monitored by measuring the optical density (OD) at 450 nm on Agilent BioTek Epoch Microplate Spectrophotometer (Agilent Technologies, Santa Clara, CA), with a background wavelength at 690 nm. […] Each sample was performed in triplicates.

T-Jurkat cell line = assay: In vitro cytotoxicity assay with XTT dye, T-Jurkat; type: cell-based, human; settings: Homo sapiens, 48 h incubation then 24 h XTT, read-out: IC50 T-Jurkat (XTT test)
Experimental: as §1, §2

T-Jurkat cells = assay: Dye-based proliferation assay VPD450 (flow cytometry), T-Jurkat; type: cell-based, human; settings: Homo sapiens, 48 h
Experimental: Figure 4. […] Cell proliferation was analysed using flow cytometry.

PBMCs [2] = assay: VPD450 proliferation of PBMCs with or without GMP (IMPDH mechanism test); type: cell-based, human; settings: PBMCs, 72 h
Experimental: According to reported experiment, suppression of cell proliferation caused by IMPDH inhibitors in the presence of guanosine source, e.g. gunosine monophosphate (GMP) is reversible.
Figure 5. […] Cell proliferation was analysed using flow cytometry.
Cells proliferation was analyzed using flow cytometry.
(1 picture or pasted object on this page, not shown here)

PBMCs [3] = settings: read-out: EC50 PBMCs (VPD450 proliferation); PBMCs stimulated with anti-CD3/anti-CD28 beads, 72 h
Experimental: (§3) Cell proliferation was analysed using flow cytometry. The results are expressed as the mean ± SD.
(§4) PBMCs and T-Jurkat cells were washed twice with warm PBS (37 °C), suspended in fresh PBS at a final concentration of 10–30 × 10^6 cells/mL and labelled with 1 µL of VPD450 (BD Biosciences, Franklin Lakes, NJ) at 37 °C for 15 min. Each 5 min cells were vortexed to provide uniform staining[42]^,[43]. Subsequently, cells were washed with PBS and then with complete medium (X-VIVO20 for PBMCs and RPMI-1640 for T-Jurkat cells). After this step, cells were suspended in fresh complete medium, seeded on 96-well plates (1 × 10^6 cells/well). PBMCs were additionally stimulated with magnetic beads coated with anti-CD3 and anti-CD28 antibodies (Invitrogen, Carlsbad, CA) in 1:0.5 cell:bead ratio. Of 100 µL of examined derivatives of MPA were added to experimental wells to receive final concentrations: 100; 10; 1; 0.1; 0.01 µM. In parallel, stained and not stimulated cells, as well as stained and stimulated cells, were seeded in the same concentration as controls. After 48 h for T-Jurkat and 72 h for PBMCs, cells were analysed with flow cytometer LSRFortessa (BD Biosciences, Franklin Lakes, NJ) and Kaluza C Flow Cytometry Analysis Software (Beckman Coulter, Brea, CA). […] Cell viability was determined at the highest concentration of the tested compound. For this purpose, TC20 cell counter (Biorad) was used with trypan blue exclusion.

PBMCs [4] = assay: cells; settings: Homo sapiens, PBMC, 72 h, read-out: EC50 PBMCs (VPD450 proliferation), PBMCs stimulated with anti-CD3/anti-CD28 beads, 72 h
Experimental: as §3, §4

- EC50 (T-Jurkat cells): 0.85 ± 0.004 µM
- melting point: 175 to 177 °C
SMILES: COc1c(C)c2c(c(O)c1C/C=C(\C)CCC(=O)Nc1nc3ccccc3o1)C(=O)OC2 [A2, N-(benzo[d]oxazol-2-yl) mycophenolate]
- IC50 (PBMCs [1]): 15.923 ± 0.009 µM
- IC50 (T-Jurkat cell line): 1.326 ± 0.002 µM
- Effect of GMP addition on proliferation (PBMCs [2]; 50 µM GMP, MPA at 100, 10 and 1 µM, A2 at 100 and 10 µM): proliferation increases after the addition of GMP
- Mechanism of action (IMPDH inhibition, GMP reversal) (PBMCs [2]; with or without 50 µM GMP): consistent with that of MPA
- EC50 (PBMCs [3]): 5.601 ± 0.022 µM
- EC50 (PBMCs [4]): 5.6 µM

Source: PMC9542285, “Novel amides of mycophenolic acid and some heterocyclic derivatives as immunosuppressive agents” (Journal of Enzyme Inhibition and Medicinal Chemistry, 2022)
